Tests used:
[1] = test system: α-isomaltosylglucosaccharide-forming enzyme; experiment: Action on saccharides as substrates (TLC), enzyme of C9 strain; assay type: biochemical, Bacillus globisporus C9 strain; design: key: −: it showed no change; +: it showed a slight reduction of the color spot of the substrate and the formation of other reaction product; ++: it showed a high reduction of the color spot of the substrate and the formation of other reaction product; +++: it showed a substantial disappearance of the substrate spot and the formation of other reaction product; details: two units/g substrate, substrate 2% (w/v), 30° C., pH 6.0, 24 hours
Description: (§1) To examine the saccharides in the supernatant, they were separated by developing twice on silica gel thin-layer chromatography (abbreviated as “TLC” hereinafter) using, as a developer, a mixture solution of n-butanol, pyridine, and water (=6:4:1 by volume), and, as a thin-layer plate, “[…]™ 60”, an aluminum plate (20×20 cm) for TLC commercialized by Merck & Co., Inc., Rahway, USA. The coloration of the separated total sugars by the sulfuric acid-methanol method and that of the reducing saccharides by the diphenylamine-aniline method detected a non-reducing saccharide positive at an Rf value of about 0.31 on the former detection method but negative on the latter detection method.
(§2) It was tested whether any saccharides can be used as substrates for α-isomaltosylglucosaccharide-forming enzyme. For the purpose, a solution of maltose, maltotriose, maltotetraose, maltopentaose, maltohexaose, maltoheptaose, isomaltose, isomaltotriose, panose, isopanose, α,α-trehalose, kojibiose, nigerose, neotrehalose, cellobiose, gentibiose, maltitol, maltotriitol, lactose, sucrose, erlose, selaginose, maltosyl glucoside, or isomaltosyl glucoside was prepared.
(§3) To each of the above solutions was added two units/g substrate of a purified specimen of α-isomaltosylglucosaccharide-forming enzyme from either Bacillus globisporus C9 strain obtained by the method in Experiment 4-2, Bacillus globisporus C11 strain obtained by the method in Experiment 7-2, Bacillus globisporus N75 strain obtained by the method in Experiment 11-2, or Arthrobacter globiformis A19 strain obtained by the method in Experiment 15-2, and the resulting each solution was adjusted to give a substrate concentration of 2% (w/v) and incubated at 30° C. and pH 6.0 for 24 hours, except for using pH 8.4 for the enzyme from Arthrobacter globiformis A19 strain. The enzyme solutions before and after the enzymatic reactions were respectively analyzed on TLC disclosed in Experiment 1 to confirm whether the enzymes acted on these substrates.

[2] = test system: α-isomaltosylglucosaccharide-forming enzyme; experiment: Action on saccharides as substrates (TLC), enzyme of C11 strain; assay type: biochemical, Bacillus globisporus C11 strain; design: key: −: it showed no change; +: it showed a slight reduction of the color spot of the substrate and the formation of other reaction product; ++: it showed a high reduction of the color spot of the substrate and the formation of other reaction product; +++: it showed a substantial disappearance of the substrate spot and the formation of other reaction product; details: two units/g substrate, substrate 2% (w/v), 30° C., pH 6.0, 24 hours
Description: as §1, §2, §3

[3] = test system: α-isomaltosylglucosaccharide-forming enzyme; experiment: Action on saccharides as substrates (TLC), enzyme of N75 strain; assay type: biochemical, Bacillus globisporus N75 strain; design: key: −: it showed no change; +: it showed a slight reduction of the color spot of the substrate and the formation of other reaction product; ++: it showed a high reduction of the color spot of the substrate and the formation of other reaction product; +++: it showed a substantial disappearance of the substrate spot and the formation of other reaction product; details: two units/g substrate, substrate 2% (w/v), 30° C., pH 6.0, 24 hours
Description: as §1, §2, §3

[4] = test system: α-isomaltosylglucosaccharide-forming enzyme; experiment: Action on saccharides as substrates (TLC), enzyme of A19 strain; assay type: biochemical, Arthrobacter globiformis A19 strain; design: key: −: it showed no change; +: it showed a slight reduction of the color spot of the substrate and the formation of other reaction product; ++: it showed a high reduction of the color spot of the substrate and the formation of other reaction product; +++: it showed a substantial disappearance of the substrate spot and the formation of other reaction product; details: two units/g substrate, substrate 2% (w/v), 30° C., pH 8.4, 24 hours
Description: as §1, §2, §3

[5] = test system: α-isomaltosylglucosaccharide-forming enzyme; experiment: Transfer-acceptor specificity, enzyme of C9 strain; assay type: biochemical, Bacillus globisporus C9 strain; details: acceptor 1.6%, PINE-DEX #100 donor 4%, one unit/g donor, 30° C., pH 6.0, 24 hours
Summary of the method: (§4)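 Acceptor saccharides at 1.6% with partial starch hydrolyzate donor at 4% and purified enzyme at 1 unit/g donor, d.s.b., 30 °C, 24 h, pH 6.0 (pH 8.4 for A19 enzyme). Transfer products of mono- and disaccharide acceptors analysed by GLC, of trisaccharide acceptors by HPLC with refractometer detection.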

[6] = test system: α-isomaltosylglucosaccharide-forming enzyme; experiment: Transfer-acceptor specificity, enzyme of C11 strain; assay type: biochemical, Bacillus globisporus C11 strain; details: acceptor 1.6%, PINE-DEX #100 donor 4%, one unit/g donor, 30° C., pH 6.0, 24 hours
Summary of the method: as §4

[7] = test system: α-isomaltosylglucosaccharide-forming enzyme; experiment: Transfer-acceptor specificity, enzyme of N75 strain; assay type: biochemical, Bacillus globisporus N75 strain; details: acceptor 1.6%, PINE-DEX #100 donor 4%, one unit/g donor, 30° C., pH 6.0, 24 hours
Summary of the method: as §4

[8] = test system: α-isomaltosylglucosaccharide-forming enzyme; experiment: Transfer-acceptor specificity, enzyme of A19 strain; assay type: biochemical, Arthrobacter globiformis A19 strain; details: acceptor 1.6%, PINE-DEX #100 donor 4%, one unit/g donor, 30° C., pH 8.4, 24 hours
Summary of the method: as §4

[9] = test system: α-isomaltosylglucosaccharide-forming enzyme; experiment: Influence of metal ions on α-isomaltosylglucosaccharide-forming enzyme activity (C9 strain); assay type: biochemical, Bacillus globisporus C9 strain
Experimental: (§5) About 20 L of a fresh preparation of the same liquid culture medium as used in the above seed culture were placed in a 30-L fermentor, sterilized by heating, and then cooled to 27° C. and inoculated with 1% (v/v) of the seed culture, followed by culturing at 27° C. and pH 6.0 to 8.0 for 48 hours under aeration-agitation conditions. […] These activities were assayed as follows: The activity of α-isomaltosylglucosaccharide-forming enzyme was assayed by dissolving maltotriose in 100 mM acetate buffer (pH 6.0) to give a concentration of 2% (w/v) for a substrate solution, adding a 0.5 ml of an enzyme solution to a 0.5 ml of the substrate solution, enzymatically reacting the mixture solution at 35° C. for 60 min, suspending the enzymatic reaction by boiling the solution for 10 min, and quantifying maltose, among the isomaltosyl maltose and maltose formed mainly in the reaction mixture, on HPLC disclosed in Experiment 1. One unit activity of α-isomaltosylglucosaccharide-forming enzyme is defined as the enzyme amount that forms one micromole of maltose per minute under the above enzymatic reaction conditions. Throughout the specification, the enzymatic activity of α-isomaltosylglucosaccharide-forming enzyme means the unit(s) assayed as above.
(§6) The influence of metal ions on the activity of α-isomaltosylglucosaccharide-forming enzyme was examined in the presence of 1 mM of each metal-ion according to the assay for its enzyme activity.

[10] = test system: α-isomaltosyl-transferring enzyme; experiment: Influence of metal ions on α-isomaltosyl-transferring enzyme activity (C9 strain); assay type: biochemical, Bacillus globisporus C9 strain; details: in the presence of 1 mM of each metal-ion; None = 100
Experimental: The activity of α-isomaltosyl-transferring enzyme was assayed by dissolving panose in 100 mM acetate buffer (pH 6.0) to give a concentration of 2% (w/v) for a substrate solution, adding a 0.5 ml of an enzyme solution to 0.5 ml of the substrate solution, enzymatically reacting the mixture solution at 35° C. for 30 min, suspending the enzymatic reaction by boiling the solution for 10 min, and quantifying glucose, among the cyclotetrasaccharide and glucose formed mainly in the reaction mixture, by the glucose oxidase method. One unit activity of α-isomaltosyl-transferring enzyme is defined as the enzyme amount that forms one micromole of glucose per minute under the above enzymatic reaction conditions. Throughout the specification, the enzymatic activity of α-isomaltosyl-transferring enzyme means the unit(s) assayed as above.
The influence of metal ions on the activity of α-isomaltosyl-transferring enzyme was examined in the presence of 1 mM of each metal-ion according to the assay for its enzyme activity.

[11] = test system: α-isomaltosylglucosaccharide-forming enzyme; experiment: Influence of metal ions on α-isomaltosylglucosaccharide-forming enzyme activity (C11 strain); assay type: biochemical, Bacillus globisporus C11 strain
[12] = test system: α-isomaltosylglucosaccharide-forming enzyme; experiment: Influence of metal ions on α-isomaltosylglucosaccharide-forming enzyme activity (N75 strain); assay type: biochemical, Bacillus globisporus N75 strain
Experimental: as §5, §6

[13] = in the presence of 1 mM of each metal-ion, None = 100

SMILES	Enzymatic action, Enzyme of C9 strain [1]	Enzymatic action, Enzyme of C11 strain [2]	Enzymatic action, Enzyme of N75 strain [3]	Enzymatic action, Enzyme of A19 strain [4]	effect on the enzyme activity, in words ([9]; 1 mM, Table 3)	Relative activity (%) [9, 13] [%]	Relative activity (%) [10] [%]	effect on the enzyme activity, in words ([11]; 1 mM, Table 7)	Relative activity (%) [11, 13] [%]	effect on the enzyme activity, in words ([12]; 1 mM, Table 13)	Relative activity (%) [12, 13] [%]	Product of transferring reaction, Enzyme of C9 strain [5]	Product of transferring reaction, Enzyme of C11 strain [6]	Product of transferring reaction, Enzyme of N75 strain [7]	Product of transferring reaction, Enzyme of A19 strain [8]
OC[C@@H](O)[C@@H](O[C@H]1O[C@H](CO)[C@@H](O)[C@H](O)[C@H]1O)[C@H](O)[C@@H](O)CO [Maltitol, maltitol]	−	−	−	−								++ (a saccharide-transferred product was detected in an amount over ten percent through transfer reaction to acceptor)	++ (a saccharide-transferred product was detected in an amount over ten percent through transfer reaction to acceptor)	++ (a saccharide-transferred product was detected in an amount over ten percent through transfer reaction to acceptor)	++ (a saccharide-transferred product was detected in an amount over ten percent through transfer reaction to acceptor)
[Mn+2] [Mn^2+]					activated	111	106	activated	142	activated	120				
OC[C@H]1O[C@@](CO)(O[C@H]2O[C@H](CO)[C@@H](O)[C@H](O)[C@H]2O)[C@@H](O)[C@@H]1O [Sucrose, sucrose]	−	−	−	−								++ (a saccharide-transferred product was detected in an amount over ten percent through transfer reaction to acceptor)	++ (a saccharide-transferred product was detected in an amount over ten percent through transfer reaction to acceptor)	++ (a saccharide-transferred product was detected in an amount over ten percent through transfer reaction to acceptor)	++ (a saccharide-transferred product was detected in an amount over ten percent through transfer reaction to acceptor)

Second part, led by results:

Enzymatic action, Enzyme of C9 strain [1]	Enzymatic action, Enzyme of C11 strain [2]	Enzymatic action, Enzyme of N75 strain [3]	Enzymatic action, Enzyme of A19 strain [4]	effect on the enzyme activity, in words ([9]; 1 mM, Table 3)	Relative activity (%) [9, 13] [%]	Relative activity (%) [10] [%]	effect on the enzyme activity, in words ([11]; 1 mM, Table 7)	Relative activity (%) [11, 13] [%]	effect on the enzyme activity, in words ([12]; 1 mM, Table 13)	Relative activity (%) [12, 13] [%]	SMILES	Product of transferring reaction, Enzyme of C9 strain [5]	Product of transferring reaction, Enzyme of C11 strain [6]	Product of transferring reaction, Enzyme of N75 strain [7]	Product of transferring reaction, Enzyme of A19 strain [8]
−	−	−	−								OC[C@H]1O[C@@H](O[C@H]2[C@H](O)[C@@H](O)C(O)O[C@@H]2CO)[C@H](O)[C@@H](O)[C@H]1O (stereo partly drawn) [Lactose, lactose]	++ (a saccharide-transferred product was detected in an amount over ten percent through transfer reaction to acceptor)	++ (a saccharide-transferred product was detected in an amount over ten percent through transfer reaction to acceptor)	++ (a saccharide-transferred product was detected in an amount over ten percent through transfer reaction to acceptor)	++ (a saccharide-transferred product was detected in an amount over ten percent through transfer reaction to acceptor)
−	−	−	−								OC[C@H]1O[C@H](O[C@H]2O[C@H](CO)[C@@H](O)[C@H](O)[C@H]2O)[C@H](O)[C@@H](O)[C@@H]1O [Trehalose, α,α-trehalose]	++ (a saccharide-transferred product was detected in an amount over ten percent through transfer reaction to acceptor)	++ (a saccharide-transferred product was detected in an amount over ten percent through transfer reaction to acceptor)	++ (a saccharide-transferred product was detected in an amount over ten percent through transfer reaction to acceptor)	++ (a saccharide-transferred product was detected in an amount over ten percent through transfer reaction to acceptor)
